Patent US12295936B2, “Immunomodulating urea azalides” (Zoetis Services LLC, priority 2020, dated 2025)

How the values were obtained:
in vivo = conditions: Holstein, bovine, plasma, subcutaneous, 2.5 mg/kg
Experimental: (§3) The primary clinical endpoint for efficacy was treatment failure/success over a 14-day observation period. Clinically normal beef calves (150-200 kg) at moderate risk for BRD were dosed on arrival to the feedlot. Animals (N=114/group) received saline (T01), 5 mg/kg M9 (T02), 10 mg/kg M9 (T03) or Zactran (T04).

IL-8 = IL-8 levels in cattle (natural infection and M. hemolytica challenge studies); format: in vivo; conditions: over the course of a natural infection study; control animals increased 270%
Experimental: Intensive sample collection was conducted over a 96-hour period in a subset of cattle treated with Example H-91 (0.5 mg/kg) or H-11 (0.1 mg/kg) in the natural bovine infection studies. […] The compounds of the invention have shown an up-regulation of IL-36RA, which then binds to IL-36R limiting the pro-inflammatory response of IL-36. In addition, the IL-8 levels from one of the natural infection studies with Example H-91, increased 270% over the course of the study for control animals. In contrast, the IL-8 levels in animals dosed with Example H-91 decreased by about 15%.

[1] = Lactone A / lactone B equilibration in aqueous solution; format: physicochemical; conditions: pH>6 and temperatures >60° C.
Experimental: The H-11 lactones were separated by HPLC using an Agilent 1100 quaternary pump and diode array detector (250 nm) with an X-select CSH C18 column (150×4.6 mm, 2.5 μm) at 50° C. using a gradient mobile phase (mp) comprising 0.03% H2SO4 in water (mpA) and acetonitrile (mpB) over 16 minutes. Lactone A eluted at 5.8 minutes (area % 92.4) and lactone B eluted at 5.2 minutes (area % 7.6).
In an aqueous solution, Example H-11 exists as an equilibrated mixture of two lactone isomers as shown above. The ratio is approximately 9:1 lactone A:B. The rate of equilibration depends on pH and temperature, with neutral pH giving faster equilibration, pH˜5-6 giving much slower equilibration, and higher temperatures resulting in faster equilibration. Equilibration occurs in under 1-hour at pH>6 and temperatures >60° C. H-11 isomerization is a 6 exo-Trig cyclization and is a favored reaction by Baldwin's Rules. The dominant isomer, lactone-A, is a 15-membered macrocyclic lactone, while the minor isomer, lactone-B, is a 13-membered macrocyclic lactone. […]

[2] = system: IL-17 / IFN-γ producing CD4+ T helper cells; experiment: In vivo genomics challenge model: T helper subtypes and airway IL-17; design: species or system Holstein cattle
NLRX1 = experiment: Surface plasmon resonance (SPR) drug/target affinity; format: binding
Source text: (§1) In order to add further clarity to binding partner identification, surface plasma resonance (SPR) technology was used. […] These targets were unique to this drug class compared to gamithromycin, a macrolide antibiotic used in the treatment of BRD. Both targets fit the paradigm that the immunological mechanism of action is linked to the pathways that are both of key importance as being dysregulated in BRD and modulated by M9. LCN2 is expressed by neutrophils upon activation of toll-like receptors (TLRs) and is a component of the innate inflammatory response. […] Very little information exists to date on SLAMF9. It is a member of a family of signal adaptor proteins that is thought to lack signal transduction capabilities.
(§2) KD is the equilibrium dissociation constant that was used to present the drug/target affinity. The identified targets associated with drug were measured by surface plasmon resonance (SPR) to define the KD.

LPO = LPO (Bos taurus, UniProt P80025); experiment: as above; format: binding
Source text: as §1, §2

TLR4 = experiment: as above; format: binding
Source text: as §1, §2

SLAMF9 = SLAMF9 (Bos taurus, UniProt E1BNF9); experiment: as above; format: binding; conditions: biologically relevant pH
Sequence of SLAMF9 (E1BNF9 entry or part of it): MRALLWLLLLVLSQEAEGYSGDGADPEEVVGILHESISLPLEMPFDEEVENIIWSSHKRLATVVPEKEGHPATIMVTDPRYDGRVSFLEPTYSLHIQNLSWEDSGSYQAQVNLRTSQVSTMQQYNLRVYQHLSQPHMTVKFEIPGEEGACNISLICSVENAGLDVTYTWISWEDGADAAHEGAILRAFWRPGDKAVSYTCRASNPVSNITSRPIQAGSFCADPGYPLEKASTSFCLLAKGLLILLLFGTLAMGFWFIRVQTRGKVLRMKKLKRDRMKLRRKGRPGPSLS
Source text: as §1, §2

LCN2 = LCN2 (Bos taurus, UniProt A0AAA9TIZ6); experiment: as above; format: binding; conditions: biologically relevant pH
Sequence of LCN2 (A0AAA9TIZ6 entry or part of it): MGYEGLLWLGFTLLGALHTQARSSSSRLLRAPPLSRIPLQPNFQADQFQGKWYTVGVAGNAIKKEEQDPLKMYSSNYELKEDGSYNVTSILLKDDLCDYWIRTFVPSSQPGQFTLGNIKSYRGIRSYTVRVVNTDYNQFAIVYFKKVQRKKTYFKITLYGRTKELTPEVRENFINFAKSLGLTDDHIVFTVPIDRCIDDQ
Source text: as §1, §2

P. multocida = experiment: Murine P. multocida intranasal challenge study with lung tissue RNA sequence analysis; format: in vivo, mice
Experimental: In one murine P. multocida intranasal challenge study, mice were administered tulathromycin (16 mg/kg; T02), M9 (32 mg/kg; T03), or ceftiofur (9 mg/kg; T04) by subcutaneous injection 18 hours after bacterial challenge (5×10^3 CFU/mouse) for lung tissue RNA sequence analysis. Survival at Day 7 was about 80%, 50%, and 90% for T02, T03, and T04, respectively, compared to placebo at 0%. Differential gene expression from total lung tissue RNA sequence analysis indicated at least 226 unique genes were up or down regulated (with significance) for T03. Output from ingenuity pathway analysis of these unique genes predicted major upstream regulators of the involved pathways. Data was analyzed based on the number of genes being modulated in the same direction that were associated with a given upstream regulator. An activation z-score of 2 or greater is considered significant and the direction change is indicated by +(activated) or − (inhibited). The top 5 pathways included: IL-9 signaling, glucocorticoid receptor signaling, prolactin signaling, JAK STAT signaling, and IL-17 signaling. The top 6 upstream regulators (activation z-score) included: lipopolysaccharide (−6.725), TNF (−4.669), IFNG (−5.759), IL-1β (−5.947), STAT1 (−2.787), and poly rl:rC-RNA (−5.289). Even though this study was run in the murine model, the top upstream regulators identified as being modulated by M9 include an almost ubiquitous overlap with the pathways identified in the natural disease study as being key mediators in BRD, and therefore is modulating highly relevant pathways in BRD pathobiology.

[3] = Plasma pharmacokinetics in cattle; conditions: following a 10 mg/kg dose, separate PK study
Experimental: as §3

E. coli = experiment: In-vitro MIC model (CLSI broth micro-dilution); conditions: Escherichia coli, ATCC25922, read-out: Comparative MIC's, E. coli ATCC 25922
[4] = M9 32 mg/kg (T03), ingenuity pathway analysis, − = inhibited

CCCNC[C@]1(O)[C@H](C)O[C@@H](O[C@H]2[C@H](C)[C@@H](O[C@@H]3O[C@H](C)C[C@H](N(C)C(=O)Nc4ccccc4)[C@H]3O)[C@](C)(O)C[C@@H](C)CN[C@H](C)[C@@H](O)[C@](C)(O)[C@@H](CC)OC(=O)[C@@H]2C)C[C@@]1(C)OC [Example H-91, 1-((2S,3R,4S,6R)-2-(((2R,3S,4R,5R,8R,10R,11R,12S,13S,14R)-2-ethyl-3,4,10-trihydroxy-13-(((2R,4R,5S,6S)-5-hydroxy-4-methoxy-4,6-dimethyl-5-((propylamino)methyl)tetrahydro-2H-pyran-2-yl)oxy)-3,5,8,10,12,14-hexamethyl-15-oxo-1-oxa-6-azacyclopentadecan-11-yl)oxy)-3-hydroxy-6-methyltetrahydro-2H-pyran-4-yl)-1-methyl-3-phenylurea]
Cmax (in vivo): 152 ng/mL | decrease of IL-8 levels (IL-8): about 15%

CCCNC[C@]1(O)[C@H](C)O[C@@H](O[C@H]2[C@H](C)[C@@H](O[C@@H]3O[C@H](C)C[C@H](N(C)C(=O)N(C)c4ccccc4)[C@H]3O)[C@](C)(O)C[C@@H](C)CN[C@H](C)[C@@H](O)[C@](C)(O)[C@@H](CC)OC(=O)[C@@H]2C)C[C@@]1(C)OC [Example H-11, 1-((2S,3R,4S,6R)-2-(((2R,3S,4R,5R,8R,10R,11R,12S,13S,14R)-2-ethyl-3,4,10-trihydroxy-13-(((2R,4R,5S,6S)-5-hydroxy-4-methoxy-4,6-dimethyl-5-((propylamino)methyl)tetrahydro-2H-pyran-2-yl)oxy)-3,5,8,10,12,14-hexamethyl-15-oxo-1-oxa-6-azacyclopentadecan-11-yl)oxy)-3-hydroxy-6-methyltetrahydro-2H-pyran-4-yl)-1,3-dimethyl-3-phenylurea]
time to equilibration of the lactone isomers [1]: under 1 hour | Th1:Th17 ratio post-treatment ([2]; 0.1 mg/kg (T02), blood at 24 and 48 hours, FIG. 9): increase | IL-17 levels in the airway (BAL fluid, consolidated lung tissue) ([2]; animals challenged with M. haemolytica, FIG. 10): reduction

CCCNC[C@]1(O)[C@H](C)O[C@@H](O[C@H]2[C@H](C)[C@@H](O[C@@H]3O[C@H](C)C[C@H](NC)[C@H]3O)[C@](C)(O)C[C@@H](C)CN[C@H](C)[C@@H](O)[C@](C)(O)[C@@H](CC)OC(=O)[C@@H]2C)C[C@@]1(C)OC [Example M9, (2R,3S,4R,5R,8R,10R,11R,12S,13S,14R)-2-ethyl-3,4,10-trihydroxy-13-(((2R,4R,5S,6S)-5-hydroxy-4-methoxy-4,6-dimethyl-5-((propylamino)methyl)-tetrahydro-2H-pyran-2-yl)oxy)-11-(((2S,3R,4S,6R)-3-hydroxy-6-methyl-4-(methylamino)tetrahydro-2H-pyran-2-yl)oxy)-3,5,8,10,12,14-hexamethyl-1-oxa-6-azacyclopentadecan-15-one, reference compound]
drug/target binding, NLRX1 (NLRX1): Indirect | Interaction type (LPO): Indirect | Interaction KD (M) (TLR4): Indirect | drug/target binding, SLAMF9 (SLAMF9): direct binding targets | drug/target binding, LCN2 (LCN2): direct binding targets | unique genes up or down regulated (with significance), total lung tissue RNA sequence analysis (P. multocida; M9 32 mg/kg (T03)): at least 226 | activation z-score, upstream regulator IFNG (P. multocida; [4]): −5.759 | activation z-score, upstream regulator IL-1β (P. multocida; [4]): −5.947 | activation z-score, upstream regulator STAT1 (P. multocida; [4]): −2.787 | activation z-score, upstream regulator TNF (P. multocida; [4]): −4.669 | activation z-score, upstream regulator lipopolysaccharide (P. multocida; [4]): −6.725 | activation z-score, upstream regulator poly rl:rC-RNA (P. multocida; [4]): −5.289 | Survival at Day 7 (P. multocida; subcutaneous 18 hours after challenge (5×10^3 CFU/mouse): tulathromycin 16 mg/kg, M9 32 mg/kg, ceftiofur 9 mg/kg, placebo 0%): ~50% | maximum plasma concentration [3]: 5 µg/mL | MIC (E. coli): > 64 µg/mL
